# In US6537991B1, “Method of treating a peripheral neuropathic pain” (AstraZeneca AB, priority 1999, dated 2003):
# Where two headings read alike, the source gives them in different places.
# What was measured:
# [1] = system: chronic constrictive injury (CCI) model (loosely ligated common sciatic nerve); details: cited from earlier work
# [2] = system: chronic constrictive injury (CCI) model (loosely ligated common sciatic nerve); assay: chronic constrictive injury (CCI) model of peripheral mononeuropathy; type: in vivo, rat; details: oral test doses of 0.3, 3 and 30 mg/kg/day (dosed four times a day)
# Excerpt: The development of a rodent model of peripheral mononeuropathy (Pain, 33, 1988, 87-107; Exp Brain Res, 113, 1997, 200-206; and Exp Brain Res, 120, 1998, 432-438) has provided a new approach for studies of post-injury neuropathic pain. The model produces neuropathic pain syndromes in the rat by loosely ligating the common sciatic nerve and has been described as a chronic constrictive injury (CCI) model. The behavioural, morphological and autoradiographic data obtained from the rodents in this model closely represent the clinical features of post-injury neuropathic pain. […] This model has value therefore in predicting efficacy of compounds against neuropathic pain.
# The identification of compounds which are useful in the treatment or prevention of neuropathic pain is the subject of the present invention. These properties may be assessed, for example, using the CCI model as described in Pain, 33, 1988, 87-107.
structure (smiles),measurement,setting,value
NCC1(CC(=O)O)CCCCC1 [gabapentin],activity in the CCI model,"[1]; Eur J Pharmacol, 324, 1997, 157-160",demonstrates activity
"CCN(Cc1cc(Cl)ccc1OCC(C)C)c1ccc(C(=O)NS(=O)(=O)c2c(C)noc2C)nn1 [d), N-(3,5-dimethylisoxazol-4-ylsulphonyl)-6-[N-(5-chloro-2-(2-methylpropoxy)benzyl)-N-ethylamino]pyridazine-3-carboxamide]",activity in the CCI model,[2],demonstrates activity
O=C(c1ccccc1)c1ccc2n1CCC2C(=O)O (stereo not drawn) [ketorolac tromethamine],activity compared to morphine,"[1]; dosed intrathecally, Can J Anaesth, 1996, 43, 967",modest activity
